# Source: US9790180B2, “Piperidine derivatives as HDAC1/2 inhibitors” (Acetylon Pharmaceuticals, Inc., priority 2014, dated 2017)
# Tests used:
# HDAC3 = HDAC3 (Homo sapiens (Human), UniProt O15379); assay: HDAC enzyme assay, HDAC3; format: biochemical; details: 24 hours pre-incubation with enzyme; read-out: IC50 (nM) HDAC3
# Experimental: Compounds for testing were diluted in DMSO to 50 fold the final concentration and a ten point three fold dilution series was made. The compounds were diluted in assay buffer (50 mM HEPES, pH 7.4, 100 mM KCl, 0.001% Tween-20, 0.05% BSA, 20 μM tris(2-carboxyethyl)phosphine) to 6 fold their final concentration. The HDAC enzymes (purchased from BPS Biosciences) were diluted to 1.5 fold their final concentration in assay buffer and pre-incubated with the compounds for 24 hours prior to addition of the substrate.
# The substrate tripeptide substrate 3 (synthesized in house) for each enzyme was equal to the Km as determined by a substrate titration curve. The substrates were diluted in assay buffer at 6× their final concentration with 0.3 μM sequencing grade trypsin (Sigma). The substrate/trypsin mix was added to the enzyme/compound mix, the plate was shaken for 60 seconds and placed into a Spectramax M5 microtiter plate reader. The development of fluorescence was monitored for 30 min and the linear rate of the reaction was calculated. The IC50 was determined using Graph Pad Prism by a four parameter curve fit. The IC50 values obtained for the compounds of this invention are found in Table 1. Examples of the curves are found in FIGS. 1 and 4.
# [1] = tested on: fetal β-like globin (HbG, γ); assay: Fetal globin induction assay in CD34+ cells isolated from human bone marrow; format: cell-based
# Experimental: CD34+ cells isolated from human bone marrow were cultured in vitro using a method described by Bradner J E (Proc Natl Acad Sci USA. 2010 Jul. 13; 107(28):12617-22), which consists of a 7 day expansion phase in media that supports differentiation of cells towards the erythroid lineage followed by a differentiation phase for 3 days where erythroid cell development continues. At the end of the differentiation period these cells are primarily late erythroblasts. mRNA levels were determined by quantitative real time PCR using primer/probe sets designed to adult major β-globin (β), adult minor β-globin (δ), fetal β-like globin (HbG, γ), and embryonic β-like globin (ε). Protein levels were determined by flow cytometry using fluorescent antibodies against fetal hemoglobin (HbF) or adult hemoglobin (HbA).
# In the experiment shown in FIG. 3, cells were differentiated in the presence of vehicle (DMSO) 0.3, 1 and 3 μM of Compound A, and of 0.3, 1, and 3 μM of Compound 003. In the experiment shown in FIG. 6, cells were differentiated in the presence of vehicle (DMSO) 0.3, 1 and 3 μM of Compound A, and of 0.3, 1, and 3 μM of Compound 005. Globin mRNA levels were determined at day 3 of differentiation.
# [2] = Rat cassette pharmacokinetics; format: in vivo; details: male, SD, plasma
# Experimental: Male SD rats were fasted overnight. Compounds of the invention were dissolved in dimethyl acetamide at 10 times the final concentration, then Solutol HS 15 (BASF) was added to a final concentration of 10%. Finally 80% saline was added and vortexed to achieve a clear solution. For the IV dosing three animals were injected via the foot dorsal vein with 1 mg/kg compound. For the PO dosing 5 mg/kg of compound was delivered by oral gavage. Blood was collected via the tail vein into K2EDTA tubes at 5 minutes, 15 minutes, 30 minutes, 1 hour, 2 hours, 4 hours, 8 hours and 24 hours after dosing. The blood was centrifuged at 2000 g for 5 minutes at 4° C. to obtain plasma. The plasma was extracted with acetonitrile and the level of compound was analyzed by LC/MS/MS. The level of compound in plasma was calculated from a standard curve in rat plasma. The IV clearance and area under the curve were calculated using WinNonLin software. The dose adjusted area under the curve for the IV and oral dosing were used to calculate the oral bioavailability.
# hERG channel = hERG channel (Homo sapiens (Human), UniProt Q12809); assay: hERG assay (QPatch, CHO cell line expressing hERG channels); format: cell-based; details: In vitro tox
# hERG channel, sequence (Q12809 whole entry): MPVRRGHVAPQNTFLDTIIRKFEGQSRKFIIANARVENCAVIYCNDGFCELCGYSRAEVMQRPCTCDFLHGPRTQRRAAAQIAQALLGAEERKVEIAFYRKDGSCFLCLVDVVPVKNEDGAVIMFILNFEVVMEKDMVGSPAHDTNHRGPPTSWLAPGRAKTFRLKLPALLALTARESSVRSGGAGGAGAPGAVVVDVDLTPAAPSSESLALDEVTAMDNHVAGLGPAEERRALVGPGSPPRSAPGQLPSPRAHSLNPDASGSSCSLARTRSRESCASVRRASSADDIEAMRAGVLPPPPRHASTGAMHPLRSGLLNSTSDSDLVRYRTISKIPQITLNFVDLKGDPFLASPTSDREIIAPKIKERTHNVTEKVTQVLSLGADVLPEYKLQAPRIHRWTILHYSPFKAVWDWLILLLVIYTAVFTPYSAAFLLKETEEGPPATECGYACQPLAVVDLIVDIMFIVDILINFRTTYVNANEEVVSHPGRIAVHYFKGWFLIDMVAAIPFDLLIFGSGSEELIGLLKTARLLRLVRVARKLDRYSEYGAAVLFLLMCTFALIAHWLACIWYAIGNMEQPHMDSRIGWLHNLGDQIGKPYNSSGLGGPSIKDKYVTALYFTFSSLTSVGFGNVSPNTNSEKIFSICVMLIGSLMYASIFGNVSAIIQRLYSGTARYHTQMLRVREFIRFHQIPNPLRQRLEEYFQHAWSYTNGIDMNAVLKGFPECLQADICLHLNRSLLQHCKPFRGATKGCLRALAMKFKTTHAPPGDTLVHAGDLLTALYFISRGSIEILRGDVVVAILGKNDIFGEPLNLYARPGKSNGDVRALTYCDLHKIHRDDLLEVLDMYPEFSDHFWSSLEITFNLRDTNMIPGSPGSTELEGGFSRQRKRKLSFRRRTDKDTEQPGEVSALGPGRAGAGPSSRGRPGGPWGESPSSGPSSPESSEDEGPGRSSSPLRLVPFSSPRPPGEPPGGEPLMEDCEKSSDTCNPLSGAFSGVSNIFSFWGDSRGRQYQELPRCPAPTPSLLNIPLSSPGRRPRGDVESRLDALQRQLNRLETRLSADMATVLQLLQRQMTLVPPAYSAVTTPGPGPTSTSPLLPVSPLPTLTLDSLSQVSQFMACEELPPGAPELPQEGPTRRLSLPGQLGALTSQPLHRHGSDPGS
# Experimental: For hERG assays, a CHO cell line stably transfected with hERG cDNA and expressing hERG channels were seeded into a QPatch plate (Sophion) at a density of 3-8×10^6 cells/ml. The cells were voltage clamped at a holding potential of −80 mV. The hERG current was activated by depolarizing at +20 mV for 5 sec, after which the current was taken back to −50 mV for 5 sec to remove the inactivation and observe the deactivating tail current. The maximum amount of tail current size was used to determine hERG current amplitude. Six doses (30, 10, 3, 1, 0.3 and 0.1 μM) of Compound 003 were chosen to obtain fitting curves and IC50. Data were analyzed using Assay Software provided by Sophion and Graphpad Prism.
# [3] = tested on: CYP1A2, CYP2C9, CYP2C19, CYP3A4, CYP2D6; assay: Cyp inhibition in human liver microsomes; format: in vitro ADME; details: In vitro tox; human liver microsomes
# Experimental: For Cyp inhibition, human live microsomes from BD Gentest were incubated with Compound 003 (10, 3.33, 1.11, 0.37, 0.12, 0.04, 0.01 μM) and substrate (CYP1A2: Phenacetin at 30 μM; CYP2C9: Diclofenac at 10 μM; CYP2C19: S-Mephenytoin at 35 μM; CYP3A4: Midazolam at 5 μM and Testosterone at 80 μM; CYP2D6: Bufuralol at 10 μM) for the following incubation times: CYP1A2, 2C9, 2D6: 10 minutes, 37° C.; CYP2C19: 45 minutes, 37° C.; CYP3A4: 5 minutes, 37° C. Substrate conversion was measured by liquid chromatography/mass spectrometry/mass spectrometry (LC/MS/MS). Inhibition was calculated by curve fitting in Graph Pad Prism.
# Gata2 mRNA = Gata2 mRNA induction in erythroid progenitors; format: cell-based, human; details: primary erythroid progenitors, 3 days differentiation, relative to beta-actin mRNA (FIG. 7)
# Source text: Human bone marrow derived CD34+ cells were expanded for 7 days as described by Sankaran et al., Science, vol. 322(5909), pp. 1839-42 (2008). Cells were then differentiated, in the presence of the indicated concentration of Compound 005, Compound A (another known HDAC1/2 inhibitor), or vehicle control (DMSO), for 3 days in media supporting erythropoiesis (Hu et al., “Isolation and functional characterization of human erythroblasts at distinct stages: implications for understanding of normal and disordered erythropoiesis in vivo”, Blood, vol. 121(16), pp. 3246-53 ([…])). Gata2 mRNA was determined using quantitative real time PCR and expressed relative to the level beta-actin mRNA control.
# [4] = rat cassette dosing, 5 mg/kg PO
# HDAC3, sequence (O15379 whole entry): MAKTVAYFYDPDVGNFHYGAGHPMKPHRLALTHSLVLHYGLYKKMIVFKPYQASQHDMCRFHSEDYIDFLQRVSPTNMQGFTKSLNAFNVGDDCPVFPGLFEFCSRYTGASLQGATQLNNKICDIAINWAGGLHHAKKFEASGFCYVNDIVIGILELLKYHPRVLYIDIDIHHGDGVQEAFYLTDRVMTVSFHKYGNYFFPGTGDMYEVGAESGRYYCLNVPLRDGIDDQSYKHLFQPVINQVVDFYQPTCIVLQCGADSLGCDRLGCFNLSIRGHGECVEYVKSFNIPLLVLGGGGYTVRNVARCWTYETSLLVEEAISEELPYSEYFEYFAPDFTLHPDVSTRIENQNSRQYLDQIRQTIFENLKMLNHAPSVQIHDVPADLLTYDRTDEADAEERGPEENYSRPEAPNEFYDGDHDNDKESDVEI
# HDAC3, sequence (Q9Y618 395-489 partner): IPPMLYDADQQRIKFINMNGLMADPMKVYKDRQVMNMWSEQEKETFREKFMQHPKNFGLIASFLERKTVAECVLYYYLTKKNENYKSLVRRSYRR
smiles,measurement,setting,value
CN1CCN(C(=O)N2CCC(Nc3ccc(C(=O)Nc4cc(-c5cccs5)ccc4N)cc3)CC2)CC1 [Compound 005],IC50,HDAC3,82 nM
same,Cell based assay potency,[1]; lowest concentration to achieve a 2 fold increase in fetal globin gene expression over baseline,1000 nM
same,induction of % HbG,"[1]; primary erythroid progenitors, 3 days differentiation (FIG. 6)",equivalent dose and time-dependent induction
same,bioavailability,"[2]; 5 mg/kg, rat, oral AUC to IV AUC, dose adjusted",79%
same,AUC,[2]; [4],9160 ng·h/mL
same,Cmax,[2]; [4],569 ng/mL
same,half-life,"[2]; rat cassette dosing, 5 mg/kg PO, read-out: PO T½ (converted)",> 24 h
same,CL renal,"[2]; rat cassette dosing, IV 1 mg/kg, read-out: IV Clr. (converted)",6.33 mL/min/kg
same,hERG,hERG channel,13.8 µM
same,Cyp,[3],>10 µM
same,induction of Gata2 mRNA,Gata2 mRNA,equivalent dose and time-dependent induction
